Several values for one entry are separate records, joined by “and”; a condition that tells them apart may be missing. Identical values can stand only once. Like-named read-outs stand apart in the source and are kept apart here.
What was measured:
LecB [1] = target: T1, LecB (Pseudomonas aeruginosa, UniProt Q9HYN5); assay: biochemical; type: binding; details: IC50, fluorescence polarization, TBS/Ca pH 7.4; mean ± SD of minimum three independent measurements of triplicates
LecB [2] = target: T1, LecB; details: for N: ITC stoichiometry; for difference in Kd / binding affinity from the equatorial methyl group: microcalorimetry, vs analog lacking the methyl group (4 vs 5; 3 vs 7)
LecB [3] = target: T1, LecB; assay: biochemical
LecB [4] = target: T1, LecB; details: ITC; cited from earlier work
[5] = 25°C, mean ± SD of minimum three titrations (5: indirect titration with 3, two titrations)
[6] = mean ± SD of minimum three titrations (5: indirect titration with 3, two titrations)
[7] = validation titration of LecB (56.1 µM) with 1 (700 µM)

T1 sequence (Q9HYN5 entry or part of it): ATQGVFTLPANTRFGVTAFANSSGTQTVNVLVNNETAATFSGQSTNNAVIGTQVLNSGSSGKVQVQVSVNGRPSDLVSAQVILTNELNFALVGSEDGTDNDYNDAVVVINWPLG

For `C[C@@H]1O[C@H](CO)[C@@H](O)[C@H](O)[C@@H]1O` [compound 4, β-L-fucopyranosyl methanol], the IC50 (LecB [1]) was 23 µM and 22.9 µM, the “-TΔS” value (LecB [2]; [5]) was -0.588 ± 0.335 kcal/mol and the ΔG (LecB [2]; [5]) was -6.57 ± 0.239 kcal/mol. For the same compound, the ΔH (LecB [2]; [5]) was -5.98 ± 0.382 kcal/mol, the N (LecB [2]; [6]) was 0.86 ± 0.1 and the “difference in Kd / binding affinity from the equatorial methyl group” value (LecB [2]) was 4- to 6 fold. It also gave a Kd (LecB [3]) of 16.1 µM.
For `CC1OCC(O)C(O)C1O` [compound 3, 1-deoxy L-fucose], the IC50 (LecB [1]) was 1.6 ± 0.7 µM, the “-TΔS” value (LecB [2]; [5]) was 0.327 ± 0.263 kcal/mol and the ΔG (LecB [2]; [5]) was -8.34 ± 0.072 kcal/mol. For the same compound, the ΔH (LecB [2]; [5]) was -8.68 ± 0.22 kcal/mol, the N (LecB [2]; [6]) was 1.07 ± 0.03 and the “difference in Kd / binding affinity from the equatorial methyl group” value (LecB [2]) was 4- to 6 fold. For the same compound, the Kd (LecB [3]) was 0.77 ± 0.1 µM.
In the case of `OC1[C@H](O)COC[C@H]1O` [compound 7, 1-deoxy D-arabinose], the IC50 (LecB [1]) is reported as 9.7 µM and 9.65 µM, the “-TΔS” value (LecB [2]; [5]) is reported as 1.14 ± 0.574 kcal/mol and the ΔG (LecB [2]; [5]) is reported as -7.29 ± 0.072 kcal/mol. The ΔH (LecB [2]; [5]) was -8.44 ± 0.574 kcal/mol, the N (LecB [2]; [6]) was 0.81 ± 0.1 and the Kd (LecB [3]) was 4.46 ± 0.7 µM.
With `CO[C@@H]1O[C@@H](C)[C@@H](O)[C@@H](O)[C@@H]1O` [compound 1, methyl α-L-fucoside, reference compound] the “difference in Gibbs energy” value (LecB [2]; methyl α-L-fucoside (1) compared with 1-deoxy L-fucose (3)) was -0.359 kcal/mol, the ΔG (LecB [2]; [7]) was -8.525 kcal/mol and the ΔH (LecB [2]; [7]) was -9.257 kcal/mol. The “-TΔS” value (LecB [4]) was 1.17 kcal/mol and the ΔH (LecB [4]) was -9.87 kcal/mol.
For `CO[C@@H]1OC[C@@H](O)[C@@H](O)[C@@H]1O` [compound 13, methyl β-D-arabinoside], the IC50 (LecB [1]) is given as 3.4 µM, the “-TΔS” value (LecB [4]) is given as 1.29 kcal/mol and the Kd (LecB [4]) is given as 1.7 µM. For the same compound, the ΔG (LecB [4]) was -7.89 kcal/mol and the ΔH (LecB [4]) was -9.06 kcal/mol.
For `C[C@@H]1O[C@H](C)[C@@H](O)[C@H](O)[C@@H]1O` [compound 6, β-L-fucopyranosyl methane], the IC50 (LecB [1]) was 21 µM and 20.6 µM, the “-TΔS” value (LecB [2]; [5]) was -0.308 ± 0.43 kcal/mol and the ΔG (LecB [2]; [5]) was -6.5 ± 0.072 kcal/mol. It also gave a ΔH (LecB [2]; [5]) of -6.19 ± 0.382 kcal/mol, an N (LecB [2]; [6]) of 0.86 ± 0.2 and a Kd (LecB [3]) of 16.9 ± 1.9 µM.
In the case of `CO[C@H]1O[C@H](CO)[C@@H](O)[C@H](O)[C@@H]1O` [compound 2, methyl α-D-mannoside], the “-TΔS” value (LecB [4]) is listed as -1.41 kcal/mol and the ΔH (LecB [4]) is listed as -4.25 kcal/mol.
In the case of `OC[C@H]1OC[C@@H](O)[C@@H](O)[C@@H]1O` [compound 5, 1-deoxy D-mannose], the IC50 (LecB [1]) is reported as 104 µM, the “-TΔS” value (LecB [2]; [5]) is reported as -1.41 ± 0.382 kcal/mol and the ΔG (LecB [2]; [5]) is reported as -5.69 ± 0.22 kcal/mol. For the same compound, the ΔH (LecB [2]; [5]) was -4.28 ± 0.14 kcal/mol, the N (LecB [2]; [6]) was 0.87 ± 0.18 and the Kd (LecB [3]) was 69.1 ± 25 µM.

— PMC4240550 (PLoS ONE, 2014)
